Key:
Rattus norvegicus [1] = test: Anti-inflammatory activity in rat model of acute inflammation assessed as inhibition of carrageenan-induced paw oedema dosed at equimolar oral dose relative to 10 mg/kg, po indomethacin dosed 1 hr before carrageenan injection and measured 3 hrs after carrageenan injection; assay type: functional
Rattus norvegicus [2] = test: Anti-inflammatory activity in rat model of acute inflammation assessed as inhibition of carrageenan-induced paw oedema dosed at equimolar oral dose relative to 10 mg/kg, po indomethacin dosed 1 hr before carrageenan injection and measured 4 hrs after carrageenan injection; assay type: functional
Rattus norvegicus [3] = test: Anti-inflammatory activity in rat model of acute inflammation assessed as inhibition of carrageenan-induced paw oedema dosed at equimolar oral dose relative to 10 mg/kg, po indomethacin dosed 1 hr before carrageenan injection and measured 6 hrs after carrageenan injection; assay type: functional
Rattus norvegicus [4] = test: Anti-inflammatory activity in rat model of acute inflammation assessed as inhibition of carrageenan-induced paw oedema dosed at equimolar oral dose relative to 10 mg/kg, po indomethacin dosed 1 hr before carrageenan injection and measured 5 hrs after carrageenan injection relative to 10 mg/kg, po indomethacin; assay type: functional
Rattus norvegicus [5] = test: Anti-inflammatory activity in rat assessed as inhibition of arachidonic acid-induced paw edema dosed at equimolar oral dose relative to 10 mg/kg, po indomethacin dosed 30 mins before arachidonic acid injection and measured 1 hr after arachidonic acid injection; assay type: functional
Rattus norvegicus [6] = test: Anti-inflammatory activity in rat model of sub-chronic inflammation assessed as inhibition of cotton pellet-induced granuloma by measuring weight of granulation dosed once daily at equimolar oral dose relative to 10 mg/kg, po indomethacin for seven consecutive days from day of cotton pellet insertion (94.13 +/- 8.1 mg); assay type: functional
Rattus norvegicus [7] = test: Anti-inflammatory activity in rat Freund's adjuvant induced arthritis model of chronic inflammation assessed as inhibition of right hind paw swelling at equimolar oral dose relative to 10 mg/kg, po indomethacin dosed after 14 days from day of adjuvant injection until day 21 and measured on day 3; assay type: functional
Rattus norvegicus [8] = test: Anti-inflammatory activity in rat Freund's adjuvant induced arthritis model of chronic inflammation assessed as inhibition of right hind paw swelling at equimolar oral dose relative to 10 mg/kg, po indomethacin dosed after 14 days from day of adjuvant injection until day 21 and measured on day 6; assay type: functional
Rattus norvegicus [9] = test: Anti-inflammatory activity in rat Freund's adjuvant induced arthritis model of chronic inflammation assessed as inhibition of right hind paw swelling at equimolar oral dose relative to 10 mg/kg, po indomethacin dosed after 14 days from day of adjuvant injection until day 21 and measured on day 18; assay type: functional
Rattus norvegicus [10] = test: (§1) Hepato-toxicity in rat Freund's adjuvant induced arthritis model of chronic inflammation assessed as assessed as SGOT level at equimolar oral dose relative to 10 mg/kg, po indomethacin dosed after 14 days from day of adjuvant injection until day 21 and measured on day 21 (reference value: 92.48 +/- 7.8 U/mL); assay type: organism-based; details: in vivo, 336 h
Rattus norvegicus [11] = test: as §1, with “SGPT” for “SGOT”, “34.23” for “92.48”, “2.5” for “7.8”; assay type: organism-based; details: in vivo, 336 h
Rattus norvegicus [12] = test: as §1, with “alkaline phosphatase” for “SGOT”, “17.82” for “92.48”, “1.2 U)” for “7.8 U/mL)”; assay type: organism-based; details: in vivo, 336 h
Rattus norvegicus [13] = test: as §1, with “Renal toxicity” for “Hepato-toxicity”, “total protein” for “SGOT”, “1.78” for “92.48”, “0.11 g/dL)” for “7.8 U/mL)”; assay type: organism-based; details: in vivo, 336 h
Rattus norvegicus [14] = test: as §1, with “Renal toxicity” for “Hepato-toxicity”, “total albumin” for “SGOT”, “1.77” for “92.48”, “0.12 g/dL)” for “7.8 U/mL)”; assay type: organism-based; details: in vivo, 336 h
Rattus norvegicus [15] = test: as §1, with “Renal toxicity” for “Hepato-toxicity”, “creatinine” for “SGOT”, “0.62” for “92.48”, “0.049 mg/dL)” for “7.8 U/mL)”; assay type: organism-based; details: in vivo, 336 h
Rattus norvegicus [16] = test: as §1, with “Renal toxicity” for “Hepato-toxicity”, “blood urea nitrogen” for “SGOT”, “23.48” for “92.48”, “1.8 mg/dL)” for “7.8 U/mL)”; assay type: organism-based; details: in vivo, 336 h
Mus musculus [17] = test: Analgesic activity in Swiss albino mouse assessed as reduction in number of writhing episodes at equimolar oral dose relative to 10 mg/kg, po indomethacin measured 30 mins following acetic acid injection; assay type: functional
Mus musculus [18] = test: Analgesic activity in Swiss albino mouse assessed as reduction in formalin-induced paw licking by measuring time spent on licking during phase-1 at equimolar oral dose relative to 10 mg/kg, po indomethacin dosed 1 hr before formalin challenge and measured 30 mins after formalin injection; assay type: functional
Mus musculus [19] = test: Analgesic activity in Swiss albino mouse assessed as reduction in formalin-induced paw licking by measuring time spent on licking during phase-2 at equimolar oral dose relative to 10 mg/kg, po indomethacin dosed 1 hr before formalin challenge and measured 30 mins after formalin injection; assay type: functional
[20] = molecular target: T1, Prostaglandin G/H synthase 1 (Ovis aries, UniProt P05979); test: Inhibition of ovine COX1 by oxidized TMPD detection based colorimetric assay
T1 sequence (P05979 whole entry): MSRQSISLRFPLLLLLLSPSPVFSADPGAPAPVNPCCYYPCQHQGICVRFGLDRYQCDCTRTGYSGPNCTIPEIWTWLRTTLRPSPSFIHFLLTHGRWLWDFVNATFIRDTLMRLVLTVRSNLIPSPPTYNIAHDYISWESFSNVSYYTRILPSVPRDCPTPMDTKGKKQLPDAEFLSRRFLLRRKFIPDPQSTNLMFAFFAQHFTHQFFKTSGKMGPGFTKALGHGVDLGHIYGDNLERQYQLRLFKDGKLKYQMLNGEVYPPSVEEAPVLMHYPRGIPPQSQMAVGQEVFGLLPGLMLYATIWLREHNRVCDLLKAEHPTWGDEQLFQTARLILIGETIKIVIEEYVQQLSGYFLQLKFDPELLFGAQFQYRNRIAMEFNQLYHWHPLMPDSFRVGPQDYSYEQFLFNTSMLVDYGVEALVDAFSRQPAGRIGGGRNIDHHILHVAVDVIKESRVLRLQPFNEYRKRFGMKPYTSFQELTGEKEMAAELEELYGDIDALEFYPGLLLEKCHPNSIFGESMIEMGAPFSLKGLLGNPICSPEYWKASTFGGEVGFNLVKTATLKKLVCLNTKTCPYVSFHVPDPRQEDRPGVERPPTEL

[21] = Octanol/water partition coefficient, log P of the compound by shake flask method; assay type: physicochemical
[22] = In-vitro anti-inflammatory activity assessed as inhibition of denaturation of bovine serum albumin at equimolar dose relative to 10 mg indomethacin; assay type: functional
Rattus norvegicus [23] = test: Toxicity in healthy albino rat assessed as induction of changes in autonomic or behavioural responses up to 500 mg/kg, po; assay type: organism-based; details: in vivo
Rattus norvegicus [24] = test: Toxicity in healthy albino rat assessed as induction of tremors up to 500 mg/kg, po; assay type: organism-based; details: in vivo
Rattus norvegicus [25] = test: Toxicity in healthy albino rat assessed as induction of salivation up to 500 mg/kg, po; assay type: organism-based; details: in vivo
Rattus norvegicus [26] = test: Toxicity in healthy albino rat assessed as induction of sleep up to 500 mg/kg, po; assay type: organism-based; details: in vivo
Rattus norvegicus [27] = test: Toxicity in healthy albino rat assessed as induction of mortality at 500 mg/kg, po measured after 14 days; assay type: organism-based; details: in vivo, 336 h
Rattus norvegicus [28] = test: Anti-inflammatory activity in rat model of acute inflammation assessed as inhibition of carrageenan-induced paw oedema dosed at equimolar oral dose relative to 10 mg/kg, po indomethacin dosed 1 hr before carrageenan injection and measured 1 hr after carrageenan injection; assay type: functional

| SMILES | inhibition (INH) (Rattus norvegicus [1]) [%] | inhibition (INH) (Rattus norvegicus [2]) [%] | inhibition (INH) (Rattus norvegicus [3]) [%] | inhibition (INH) (Rattus norvegicus [4]) [%] | inhibition (INH) (Rattus norvegicus [5]) [%] | Activity (Rattus norvegicus [6]) [mg] | inhibition (INH) (Rattus norvegicus [7]) [%] | inhibition (INH) (Rattus norvegicus [8]) [%] | inhibition (INH) (Rattus norvegicus [9]) [%] | Activity (Rattus norvegicus [10]) [U/ml] | Activity (Rattus norvegicus [11]) [U/ml] | Activity (Rattus norvegicus [12]) [U] | Activity (Rattus norvegicus [13]) [g/dL] | Activity (Rattus norvegicus [14]) [g/dL] | Activity (Rattus norvegicus [15]) [mg/dL] | Activity (Rattus norvegicus [16]) [mg/dL] | inhibition (INH) (Mus musculus [17]) [%] | inhibition (INH) (Mus musculus [18]) [%] | inhibition (INH) (Mus musculus [19]) [%] | IC50 [20] [µM] | further results |
| --- | --- | --- | --- | --- | --- | --- | --- | --- | --- | --- | --- | --- | --- | --- | --- | --- | --- | --- | --- | --- | --- |
| O=c1nc(-c2ccccc2)c(-c2ccccc2)nn1Cc1nnc(-c2ccc([N+](=O)[O-])cc2)o1 | 49.6 | 54.76 | 52.27 | 89.33 | 12.26 | 58.07 | 32.01 | 36.13 | 45.9 | 102.38 | 45.28 | 19.92 | 1.84 | 1.83 | 0.88 | 39.24 | 74.84 | 13.68 | 78.04 | 44.8 | logP [21]: 3.71; inhibition [22]: 78.4%; Activity (Rattus norvegicus [23]): Non-toxic; Activity (Rattus norvegicus [24]): Non-toxic; Activity (Rattus norvegicus [25]): Non-toxic; Activity (Rattus norvegicus [26]): Non-toxic; Activity (Rattus norvegicus [27]): Non-toxic; inhibition (INH) (Rattus norvegicus [28]): 19.98% |
| Nc1ccc(-c2nnc(Cn3nc(-c4ccccc4)c(-c4ccccc4)nc3=O)o2)cc1 | 51.89 | 56.96 | 55.96 | 93.92 | 16.45 | 56.29 | 31.14 | 36.5 | 49.23 | 98.21 | 39.11 | 20.64 | 1.86 | 1.87 | 0.86 | 33.85 | 71.85 | 12.45 | 74.57 | 43.4 | logP [21]: 3.72; inhibition [22]: 80.3%; Activity (Rattus norvegicus [23]): Non-toxic; Activity (Rattus norvegicus [24]): Non-toxic; Activity (Rattus norvegicus [25]): Non-toxic; Activity (Rattus norvegicus [26]): Non-toxic; Activity (Rattus norvegicus [27]): Non-toxic; inhibition (INH) (Rattus norvegicus [28]): 24.02% |
| COc1ccc(-c2nnc(Cn3nc(-c4ccccc4)c(-c4ccccc4)nc3=O)o2)cc1 | 48.11 | 52.67 | 52.71 | 88.2 | 13.71 | 58.51 | 30.02 | 35.14 | 45.78 | 103.17 | 41.31 | 22.11 | 1.81 | 1.87 | 0.91 | 40.62 | 70.21 | 10.59 | 74.38 | 44.9 | logP [21]: 3.56; inhibition [22]: 76.7%; Activity (Rattus norvegicus [23]): Non-toxic; Activity (Rattus norvegicus [24]): Non-toxic; Activity (Rattus norvegicus [25]): Non-toxic; Activity (Rattus norvegicus [26]): Non-toxic; Activity (Rattus norvegicus [27]): Non-toxic; inhibition (INH) (Rattus norvegicus [28]): 18.24% |
| O=c1nc(-c2ccccc2)c(-c2ccccc2)nn1Cc1nnc(-c2ccc(O)cc2O)o1 | 53.27 | 59.74 | 57.56 | 94.3 | 19.19 | 56.11 | 31.26 | 37.61 | 52.44 | 99.35 | 39.67 | 19.56 | 1.88 | 1.82 | 0.72 | 38.67 | 72.4 | 10.73 | 75.21 | 43.3 | logP [21]: 3.46; inhibition [22]: 80.8%; Activity (Rattus norvegicus [23]): Non-toxic; Activity (Rattus norvegicus [24]): Non-toxic; Activity (Rattus norvegicus [25]): Non-toxic; Activity (Rattus norvegicus [26]): Non-toxic; Activity (Rattus norvegicus [27]): Non-toxic; inhibition (INH) (Rattus norvegicus [28]): 24.71% |
| O=c1nc(-c2ccccc2)c(-c2ccccc2)nn1Cc1nnc(-c2ccc(Cl)cc2)o1 | 51.32 | 54.99 | 55.47 | 92.02 | 17.58 | 57.8 | 30.02 | 35.28 | 48.87 | 107.18 | 42.45 | 20.28 | 1.91 | 1.8 | 0.78 | 42.28 | 73.26 | 12.11 | 75.85 | 44.2 | logP [21]: 3.91; inhibition [22]: 78.2%; Activity (Rattus norvegicus [23]): Non-toxic; Activity (Rattus norvegicus [24]): Non-toxic; Activity (Rattus norvegicus [25]): Non-toxic; Activity (Rattus norvegicus [26]): Non-toxic; Activity (Rattus norvegicus [27]): Non-toxic; inhibition (INH) (Rattus norvegicus [28]): 22.98% |

From ChEMBL document CHEMBL3608207, “Synthesis, characterization, evaluation and molecular dynamics studies of 5, 6-diphenyl-1,2,4-triazin-3(2H)-one derivatives bearing 5-substituted 1,3,4-oxadiazole as potential anti-inflammatory and analgesic agents” (Eur J Med Chem, 2015)
